According to patent US10070648B2, “Photodynamic insecticides” (ROSALIND FRANKLIN UNIVERSITY OF MEDICINE AND SCIENCE, priority 2016, dated 2018):
Read-outs that look alike come from different tables or passages of the source.

How the values were obtained:
Aedes mosquito larvae = assay: PDI assay of light-activated larvicidal activity (larva mobility); format: in vivo, A. aegypti and A. albopictus; details: for EC50: 2nd instar larvae, estimated from concentration vs. larvicidal activity curve, 16 hours PS exposure in dark, then white light, read-out: EC50 for PDT-mediated 2nd-instar larvicidal activities; for 2nd instar larvicidal activity (larva immobilization, % of dark control) compared with positive controls RB and CY: 1/1000 dilution of stock, white light up to 7 hours
From the text: 2nd to 4th instar larvae of A. aegypti and A. albopictus (or Aedes mosquitoes in brief) were used in the experiments, as they are known vectors of Zika fever and other viral diseases. Colonies of both species were reared to provide the larvae of all instars under the approved conditions of a humidified “warm room” (˜28 C, ˜80% relative humidity).
The PDI assay to determine the larvicidal activities of the PS in Table 1 was based on procedures developed for mammalian and protozoa cells with modifications for mosquito larvae. Briefly, each PS was tested in 3-4 concentrations in 10-fold serial dilutions, starting with a 1/100 dilution of the stock solution (see Table 1 for the PS stock concentrations) as the highest. The solvent (DMSO) at these PS concentrations was ≤1%, which was pre-tested alone and shown to have no larvicidal activity. Larvae were PS-exposed (and not exposed as a control) in groups of 20 per 5 mL of water per well of a 6-well plate, in duplicate. All plates were foil-wrapped for overnight incubation under dark conditions in the “warm room.” After 16 hours of PS exposure, one of the duplicate 6-well plates was un-wrapped and the lid removed for exposure from the top with white light from a fluorescent tube-containing box (1-2 J/cm^2). The remaining 6-well plate of the duplicate was exposed under exactly the same conditions, but remained foil-wrapped as the dark control. Larvae were checked for mobility and readings recorded hourly for up to 7 hours. […] Each condition was repeated 4-5 times in independent experiments.

[1] = system: Culex pipiens quinquefasciatus 4th instar larvae; assay: Uptake and photo-inactivation in mosquito larvae kept in dye-containing water; format: in vivo
Protocol: Panel [A]: Culex pipiens quinquefasciatus 4th instar larvae exposed to rose Bengal (10 μg/mL) (˜20 larvae/5 mL water/well in 6-well plate) in dark for ˜24 hours followed by exposure to white light for ˜6 hrs at ˜2500 lux. Panels [B] and [C]: Phlebotomus duboscqi female (B) and male (C) adult flies (˜20 flies/screened paper cup) fed with 5% sucrose solution and 500 μL of 5 mg/mL rose bengal in a cotton ball for ˜20 hrs in the dark followed by exposure to ˜2500 lux of white light for 3 hrs. Duplicate samples were prepared and kept in the dark as controls. Rose bengal was taken up by the mosquito larvae and sand flies of both sexes.
Culex pipiens quinquefasciatus 4th instar larvae were exposed to rose Bengal or cyanosine (10 μg/mL) (˜20 larvae/5 mL water/well in 6-well plate) in the dark for ˜24 hours followed by exposure to white light for ˜6 hrs at ˜2500 lux; Phlebotomus duboscqi female (FIG. 1, panel B) and male (FIG. 1, panel C) adult flies (˜20 flies/screened paper cup) fed with 5% sucrose solution and 500 μL of 5 mg/ml rose bengal in a cotton ball for ˜20 hrs in the dark followed by exposure to ˜2500 lux of white light for 3 hrs. Duplicate samples were prepared and kept in the dark as controls.
The susceptibility of PS-sensitized insects to white light illumination varied with the species and the PSs used. […]

[2] = system: Aedes albopictus clone C6/36 (ATCC CRL-1660); assay: Uptake of PS by mosquito cells in vitro and photo-inactivation; details: for state of sensitized cells after light exposure: white light, 4 hrs
Protocol: The insect cells were exposed to both dyes overnight and illuminated with white light under conditions similar to those described for mammalian and Leishmania cells. Images were captured first under differential interference (DIF) [A] and then under the filter sets for DAPI and Texas red [B]. [C] Chemical structure of cyanosione and rose Bengal.
Uptake of PS was assessed in insect cells, specifically Aedes albopictus clone C6/36 (ATCC CRL-1660). The insect cells were exposed to both dyes overnight and illuminated with white light under conditions similar to those described for mammalian and Leishmania cells. […] Images were captured first under differential interference (DIF) [A] and then under the filter sets for DAPI and Texas red [B]. [C] Chemical structure of cyanosione and rose Bengal.

[3] = 1/10000 dilution of the stocks, light-activated

Compound	viability of 2nd to 4th instar larvae (Aedes mosquito larvae; [3])	EC50 (Aedes mosquito larvae; Aedes) [nM]	phototoxicity to mosquito larvae ([1]; 10 μg/mL, dark ~24 hours, then white light ~6 hrs at ~2500 lux)	difference of sensitized larvae between dark and light conditions ([1]; motility as viability readout)	state of sensitized cells kept in the dark ([2]; dark)	state of sensitized cells after light exposure [2]	state of sensitized cells after light exposure ([2]; listed as RB)	2nd instar larvicidal activity (larva immobilization, % of dark control) compared with positive controls RB and CY (Aedes mosquito larvae)	effect on the other instars (3rd, 4th) (Aedes mosquito larvae; [3])	EC50 (Aedes mosquito larvae) [nM]
O=C([O-])c1c(Cl)c(Cl)c(Cl)c(Cl)c1-c1c2cc(I)c(=O)c(I)c-2oc2c(I)c([O-])c(I)cc12.[Na+].[Na+] [Rose Bengal]	reduced the viability of all instars to a variable extent	250	especially evident	significant	remained adherent and intact	cellular disintegration	became disintegrated			
Meso- Tetraphenylpor- phine disulphonic acid dihydrochoride [TPPS2]								most similar to RB	unscathed	
Meso-tetra(4- n,n,n- trimethylanili- nium) porphine tetrachloride [TMAP]								most similar to RB	unscathed	100
